Entries after “also recorded” stand apart in the source; their conditions may differ. Read-outs that look alike come from different tables or passages of the source.
What was measured:
β1i = β1i (Homo sapiens, UniProt P28065); test: IC50 against β1i of human immunoproteasome (Ac-PAL-AMC)
Description: (§2) IC50s of all compounds against β5i and β5c (Table 2) and against β1i, β2i, β1c, and β2c (Supplementary Table 1) were determined following reported methods[8].

β2i = β2i (Homo sapiens, UniProt P40306); test: IC50 against β2i of human immunoproteasome (Z-VLR-AMC)
Description: as §2

human β5c = human β5c (Homo sapiens, UniProt P20618+P28074); test: IC50 determination against human β5c of c-20S
Description: as §2

human β5i = human β5i (Homo sapiens, UniProt P20618+P28062); test: IC50 determination against human β5i of i-20S; details: for reduction in potency against β5i: in comparing to PKS21221
Description: as §2

β1c = β1c (Homo sapiens, UniProt P28072); test: IC50 against β1c of human constitutive proteasome (Z-LLE-AMC)
Description: as §2

β2c = β2c (Homo sapiens, UniProt Q99436); test: IC50 against β2c of human constitutive proteasome (Z-VLR-AMC)
Description: as §2

β5c (c-20S) [1] = molecular target: T1, β5c (c-20S) (Homo sapiens, UniProt P20618+P28074); test: Reversibility: dialysis of pre-incubated c-20S and inhibitor; type: biochemical; details: dialysis of pre-incubated mixture of c-20S and inhibitor
From the text: (§1) With increasing concentrations of PKS21004, both V max and K M decreased (Fig. 1d–g and Supplementary Fig. 1). […] This class thus joins a growing list of noncompetitive proteasome inhibitors[5],[30].

β5c (c-20S) [2] = molecular target: T1, β5c (c-20S); test: Kinetics studies of modality of inhibition against β5c; type: biochemical
From the text: Data as in d are shown in double reciprocal plots in e, and data from f in g. […] Data are means ± SEM of three independent experiments
as §1

β5i (i-20S) = molecular target: T2, β5i (i-20S) (Homo sapiens, UniProt P20618+P28062); test: Kinetics studies of modality of inhibition against β5i; type: biochemical
T2 construct: purchased Boston Biochem
Description: Data as in d are shown in double reciprocal plots in e, and data from f in g. […] Data are means ± SEM of three independent experiments […]
as §1
Supplementary Figure 11. Inhibition kinetics of PKS21221 against i-20S β5i. (A) Steady state velocities of the Ac-ANW-AMC hydrolysis at 10, 15, 25, 35 µM by i-20S β5i (0.4 nM) in the presence of PKS21221 at indicated concentrations were determined at 37 °C and plotted by RFU versus substrate concentration (A); values of KM, Ki and α were estimated by PRISM using equation V = (Vmax / (1 + I / (α*Ki))) * S / (KM * (1+ I / Ki) / (1 + I / (α*Ki)) + S); (B) Lineweaver-Burk plot of the data in (A). (C) Plot of KM versus concentrations of PKS21221 indicates a mixed type inhibition. (D) Plot of Vmax versus concentrations of PKS21221.
(1 picture or pasted object on this page, not shown here)

[3] = read-out: IC50 1i - PAL (β1i), substrate Ac-PAL-AMC
[4] = read-out: IC50 2i - VLR (β2i), substrate Z-VLR-AMC
[5] = read-out: IC50 against human β5i
[6] = read-out: IC50 1c - LLE (β1c), substrate Z-LLE-AMC
[7] = read-out: IC50 2c - VLR (β2c), substrate Z-VLR-AMC
[8] = fit to equation for noncompetitive inhibitors

Row | SMILES | IC50 (β1i; [3]) [µM] | IC50 (β2i; [4]) [µM] | IC50 (β1c; [6]) [µM] | IC50 (β2c; [7]) [µM] | inhibitory activity against β5i (in words) (human β5i) | also measured
1 | CC(C)(C)NC(=O)C[C@H](NC(=O)CCc1ccccc1)C(=O)NCCNC(=O)c1cccc2ccccc12 [PKS3080] | > 50 | > 50 | > 50 | > 50 |  | IC50 (human β5c; read-out: IC50 against human β5c): 1.22 µM; IC50 (human β5i; [5]): 0.37 µM
2 | CC(C)(C)OC(=O)N[C@@H](CC(N)=O)C(=O)NCCNC(=O)c1cc(-c2ccccc2F)ccc1F [PKS21281] | > 50 | > 50 | > 50 | > 50 | abolished the inhibitory activities | inhibitory activity against β5c (in words) (human β5c): abolished the inhibitory activities
3 | Cc1ccc(S(=O)(=O)NCC(=O)NCCNC(=O)c2cc(-c3ccccc3F)ccc2F)cc1 [PKS21289] | > 50 | > 50 | > 50 | > 50 | eliminated inhibitory activity | inhibitory activity against β5c (in words) (human β5c): eliminated inhibitory activity
4 | CC(C)(C)NC(=O)C[C@H](NC(=O)CCc1ccccc1)C(=O)NCCNC(=O)c1cccc(-c2ccc(F)cc2)c1 [PKS21026] | > 50 | > 50 | > 50 | > 50 |  | 
5 | CC(C)(C)NC(=O)C[C@H](NC(=O)CCc1ccccc1)C(=O)NCCNC(=O)c1cc(-c2ccccc2)ccc1F [PKS21196] | > 50 | > 50 | > 50 | > 50 |  | 
6 | CC(C)(C)NC(=O)C[C@H](NS(=O)(=O)C1CC1)C(=O)NCCNC(=O)c1cc(-c2ccccc2F)ccc1F [PKS21293] | > 50 | > 50 | > 50 | > 50 |  | selectivity for β5i over β5c (human β5i): 64 fold; reduction in potency against β5i (human β5i): 3.7 fold
7 | CC(=O)N[C@@H](CC(=O)NC(C)(C)C)C(=O)NCCNC(=O)c1cc(-c2ccccc2F)ccc1F [PKS21294] | > 50 | > 50 | > 50 | > 50 |  | reduction in potency against β5c (human β5c; in comparing to PKS21221): 120 fold; reduction in potency against β5i (human β5i): 150 fold
8 | CC(C)(C)NC(=O)C[C@H](NC(=O)CCc1ccccc1)C(=O)NCCNC(=O)c1cc(-c2ccccc2F)ccc1F [PKS21187] | > 50 | > 50 | > 50 | > 50 |  | selectivity for β5i over β5c (human β5i): ~ 20 fold; IC50 (human β5i; [5]): 0.015 µM
9 | CC(CNC(=O)c1cccc(-c2ccccc2)c1)NC(=O)[C@H](CC(=O)NC(C)(C)C)NC(=O)CCc1ccccc1 (some centres unmarked) [PKS21018] | > 50 | > 50 | > 50 | > 50 |  | 
10 | CC(C)(C)NC(=O)C[C@H](NC(=O)CCc1ccccc1)C(=O)NCCNC(=O)c1cc(-c2cccc(F)c2)ccc1F [PKS21195] | > 50 | > 50 | > 50 | > 50 |  | 
11 | CC(C)(C)NC(=O)C[C@H](NC(=O)OC(C)(C)C)C(=O)NCCNC(=O)c1cc(-c2ccccc2F)ccc1F [PKS21277] | > 50 | > 50 | > 50 | > 50 | modestly potent | selectivity for β5i over β5c (human β5i): 36 fold
12 | Cc1ccc(S(=O)(=O)N[C@@H](CC(N)=O)C(=O)NCCNC(=O)c2cc(-c3ccccc3F)ccc2F)cc1 [PKS21288] | > 50 | > 50 | > 50 | > 50 | eliminated inhibitory activity | inhibitory activity against β5c (in words) (human β5c): eliminated inhibitory activity
13 | CC(C)(C)NC(=O)C[C@H](NC(=O)CCc1ccccc1)C(=O)NCCNC(=O)c1cccc(-c2ccccc2)c1 [PKS21004] |  |  |  |  |  | IC50 (β1i): > 50 µM; reversibility of β5c inhibition; β5c activity after dialysis (β5c (c-20S) [1]): reversibly inhibits; also recorded: fully restored; IC50 (β2i): > 50 µM; Hill coefficient constant, inhibition of β5c (human β5c): ~ 1; IC50 (human β5c): 0.326 µM; Hill coefficient constant, inhibition of β5i (human β5i): ~ 1; IC50 (human β5i): 0.058 µM; IC50 (β1c): > 50 µM; α for β5c (αc-20S) (β5c (c-20S) [2]): 0.65 and ≈ 0.65; Ki (β5c (c-20S) [2]; [8]): 0.55 µM; modality of inhibition of β5c (β5c (c-20S) [2]; versus substrate): noncompetitively; IC50 (β2c): > 50 µM; α for β5i (αi-20S) (β5i (i-20S)): ≈ 0.28; α for β5i (β5i (i-20S); as printed in legend of Fig. 1): 0.28; Ki (β5i (i-20S); [8]): 0.077 µM; modality of inhibition of β5i (β5i (i-20S); versus substrate): noncompetitively
14 | CC(C)(C)NC(=O)C[C@H](NC(=O)CCc1ccccc1)C(=O)NCCNC(=O)c1ccc2ccccc2c1 [PKS21025] | > 50 | > 50 | > 50 | > 50 |  | selectivity for β5i over β5c (human β5i): 26 fold; improvement of potency against β5i (human β5i; relative to PKS3080): 3 fold
15 | Cc1ccc(S(=O)(=O)N[C@@H](C)C(=O)NCCNC(=O)c2cc(-c3ccccc3F)ccc2F)cc1 [PKS21290] | > 50 | > 50 | > 50 | > 50 | eliminated inhibitory activity | inhibitory activity against β5c (in words) (human β5c): eliminated inhibitory activity
16 | CC(C)(C)NC(=O)C[C@H](NC(=O)CCc1ccccc1)C(=O)NCCNC(=O)c1ccc(-c2ccccc2)cc1 [PKS21003] |  |  |  |  | inactive | IC50 (β1i): > 50 µM; IC50 (β2i): > 50 µM; IC50 (human β5c): > 100 µM; inhibitory activity against β5c (in words) (human β5c): inactive; IC50 (human β5i): > 100 µM; IC50 (β1c): > 50 µM; IC50 (β2c): > 50 µM
17 | CC(C)(C)NC(=O)C[C@H](NC(=O)CCc1ccccc1)C(=O)NCCNC(=O)c1cccc(-c2ccc(C#N)cc2)c1 [PKS21028] | > 50 | > 50 | > 50 | > 50 |  | 

From article PMC5700161, “Structure of human immunoproteasome with a reversible and noncompetitive inhibitor that selectively inhibits activated lymphocytes” (Nature Communications, 2017)
